Measured values as given in patent US20230330025A1, “Particle Modifiers for Multi-Drug Loaded Nanoparticles” (UNIVERSITY OF CONNECTICUT, priority 2022, published 2023).
Counter-ions that a name gives are not always drawn.

Test: In vitro release study (dialysis method)
Type: physicochemical
Conditions: PBS pH 5.5, 6.5, 7.4; 37 °C; 100 kD dialysis
Experimental: The release study was conducted using a dialysis method with PBS as the buffer media at pH 5.5, 6.5, and 7.4 to simulate the endosomal, tumoral, and plasma conditions, respectively. The pH was adjusted using 1 M HCl solution or 1 M NaOH solution as needed to achieve the desired media pH. Briefly, 5 mL of each formulation were placed in Spectrum Float-A-Lyzer G2 dialysis tubes (Thermo Fisher Scientific, Waltham, MA) with a molecular weight cut-off of 100 kD, which were then immersed in 50 mL of release media. The containers were incubated at 37° C. under shaking at 150 rpm for 96 hours. At 0-, 1-, 2-, 4-, 8-, 12-, 24-, 36-, 48-, 72-, and 96-hour intervals, 500 μL of the sample solution was withdrawn from the release media and replaced with an equal amount of fresh medium. The samples were analyzed using the UPLC-UV method previously described. The error bars were obtained by measuring each sample in triplicate.

DOX passed through membrane by 24 hours: ~100%
DOX released (passed dialysis membrane) within first 4 hours: About 80%
SMILES: COc1cccc2c1C(=O)c1c(O)c3c(c(O)c1C2=O)C[C@@](O)(C(=O)CO)C[C@@H]3O[C@H]1C[C@H](N)[C@H](O)[C@H](C)O1 [DOX solution, Doxorubicin (hydrochloride salt)]
